Laboratory results published in PubChem BioAssay AID248 (DTP/NCI, 2004).
Values joined by “and” are separate entries in the source; they are usually repeats but may differ in a detail not shown here. Equal entries are not always repeated. Toxic doses and inconclusive results are not listed.

Test system: L1210 leukemia ip in BDF1 mice, survival T/C
Test: NCI In Vivo Anticancer Drug Screen. Data for tumor model L1210 Leukemia (intraperitoneal) in B6D2F1 (BDF1) mice
Conditions: endpoint: mean survival time, higher = longer survival
Procedure, shortened: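 Each compound was tested against a transplantable tumor grown in mice. The endpoint was survival, with treated animals benchmarked against vehicle controls as a simple ratio.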

[1] = dose: 100.0 mg/kg/injection, schedule: Q04DX003 (ip), vehicle: saline
[2] = dose: 200.0 mg/kg/injection, schedule: Q04DX003 (ip), vehicle: saline
[3] = dose: 100.0 mg/kg/injection, schedule: Q01DX001 (ip), vehicle: saline
[4] = dose: 200.0 mg/kg/injection, schedule: Q01DX001 (ip), vehicle: saline
[5] = dose: 400.0 mg/kg/injection, schedule: Q01DX001 (ip), vehicle: saline
[6] = dose: 100.0 mg/kg/injection, schedule: Q01DX009 (ip), vehicle: Klucel (hydroxypropylcellulose) (HPC)
[7] = dose: 100.0 mg/kg/injection, schedule: Q04DX003 (ip), vehicle: Klucel (hydroxypropylcellulose) (HPC)
[8] = dose: 200.0 mg/kg/injection, schedule: Q01DX009 (ip), vehicle: Klucel (hydroxypropylcellulose) (HPC)
[9] = dose: 200.0 mg/kg/injection, schedule: Q04DX003 (ip), vehicle: Klucel (hydroxypropylcellulose) (HPC)
[10] = dose: 400.0 mg/kg/injection, schedule: Q01DX009 (ip), vehicle: Klucel (hydroxypropylcellulose) (HPC)
[11] = dose: 400.0 mg/kg/injection, schedule: Q04DX003 (ip), vehicle: Klucel (hydroxypropylcellulose) (HPC)
[12] = dose: 100.0 mg/kg/injection, schedule: Q04DX002 (ip), vehicle: Klucel (hydroxypropylcellulose) (HPC)
[13] = dose: 200.0 mg/kg/injection, schedule: Q04DX002 (ip), vehicle: Klucel (hydroxypropylcellulose) (HPC)
[14] = dose: 400.0 mg/kg/injection, schedule: Q04DX002 (ip), vehicle: Klucel (hydroxypropylcellulose) (HPC)

CCCCNP(=O)(OCC)OCC
T/C (dose: 12.5 mg/kg/injection, schedule: Q01DX009 (ip), vehicle: saline): 91 % of control | T/C (dose: 12.5 mg/kg/injection, schedule: Q04DX003 (ip), vehicle: saline): 101 % of control | T/C (dose: 25.0 mg/kg/injection, schedule: Q01DX009 (ip), vehicle: saline): 104 % of control | T/C (dose: 25.0 mg/kg/injection, schedule: Q04DX003 (ip), vehicle: saline): 113 % of control | T/C (dose: 50.0 mg/kg/injection, schedule: Q01DX009 (ip), vehicle: saline): 104 % of control | T/C (dose: 50.0 mg/kg/injection, schedule: Q04DX003 (ip), vehicle: saline): 101 % of control | T/C (dose: 100.0 mg/kg/injection, schedule: Q01DX009 (ip), vehicle: saline): 109 % of control | T/C [1]: 101 % of control | T/C (dose: 200.0 mg/kg/injection, schedule: Q01DX009 (ip), vehicle: saline): 96 % of control | T/C [2]: 101 % of control

CCOC(=S)SCC(=O)c1cccc([N+](=O)[O-])c1
T/C [3]: 107 % of control | T/C [4]: 103 % of control | T/C [5]: 101 % of control

CC(=O)Nc1cccc(C(=O)O)c1O
T/C [3]: 100 % of control | T/C [4]: 105 % of control | T/C [5]: 100 % of control

CCOC(=O)CCCN(c1ccccc1CC(=O)OCC)S(C)(=O)=O
T/C [6]: 103 % of control | T/C [7]: 102 % of control | T/C [8]: 94 % of control | T/C [9]: 112 % of control | T/C [10]: 97 % of control | T/C [11]: 100 % of control

COC(=O)CCCC1CC(=O)c2c(c(O)c3ccccc3c2O)C1=O (stereo not drawn)
T/C (dose: 100.0 mg/kg/injection, schedule: Q01DX005 (ip), vehicle: saline with Tween-80): 92 % of control | T/C (dose: 100.0 mg/kg/injection, schedule: Q04DX003 (ip), vehicle: saline with Tween-80): 119 % of control | T/C (dose: 200.0 mg/kg/injection, schedule: Q01DX005 (ip), vehicle: saline with Tween-80): 95 % of control | T/C (dose: 200.0 mg/kg/injection, schedule: Q04DX003 (ip), vehicle: saline with Tween-80): 105 % of control | T/C (dose: 400.0 mg/kg/injection, schedule: Q01DX005 (ip), vehicle: saline with Tween-80): 97 % of control | T/C (dose: 400.0 mg/kg/injection, schedule: Q04DX003 (ip), vehicle: saline with Tween-80): 103 % of control

COC(=O)c1[nH]c(=O)[nH]c(=O)c1F
T/C (dose: 1.0 mg/kg/injection, schedule: Q01DX009 (ip), vehicle: saline with Tween-80): 103 % of control | T/C (dose: 1.0 mg/kg/injection, schedule: Q01DX Z (ip), vehicle: methylcellulose (MC)): 115 % of control | T/C (dose: 2.0 mg/kg/injection, schedule: Q01DX009 (ip), vehicle: saline with Tween-80): 110 % of control | T/C (dose: 2.0 mg/kg/injection, schedule: Q01DX Z (ip), vehicle: carboxymethylcellulose (CMC)): 118 % of control | T/C (dose: 3.0 mg/kg/injection, schedule: Q01DX Z (ip), vehicle: carboxymethylcellulose (CMC)): 124 % of control | T/C (dose: 3.0 mg/kg/injection, schedule: Q01DX Z (ip), vehicle: methylcellulose (MC)): 151 % of control | T/C (dose: 4.0 mg/kg/injection, schedule: Q01DX009 (ip), vehicle: saline with Tween-80): 123 % of control | T/C (dose: 5.0 mg/kg/injection, schedule: Q01DX Z (ip), vehicle: carboxymethylcellulose (CMC)): 185 % of control | T/C (dose: 6.0 mg/kg/injection, schedule: Q01DX Z (ip), vehicle: methylcellulose (MC)): 172 % of control | T/C (dose: 8.0 mg/kg/injection, schedule: Q01DX009 (ip), vehicle: saline with Tween-80): 167 % of control | T/C (dose: 8.0 mg/kg/injection, schedule: Q01DX Z (ip), vehicle: carboxymethylcellulose (CMC)): 150 % of control | T/C (dose: 17.0 mg/kg/injection, schedule: Q01DX Z (ip), vehicle: carboxymethylcellulose (CMC)): 97 % of control | T/C (dose: 24.0 mg/kg/injection, schedule: Q01DX Z (ip), vehicle: methylcellulose (MC)): 114 % of control | T/C (dose: 25.0 mg/kg/injection, schedule: Q01DX Z (ip), vehicle: carboxymethylcellulose (CMC)): 120 % of control | T/C (dose: 32.0 mg/kg/injection, schedule: Q01DX009 (ip), vehicle: saline with Tween-80): 92 % of control | T/C (dose: 32.0 mg/kg/injection, schedule: Q04DX003 (ip), vehicle: saline with Tween-80): 157 % of control | T/C (dose: 38.0 mg/kg/injection, schedule: Q01DX Z (ip), vehicle: carboxymethylcellulose (CMC)): 101 % of control | T/C (dose: 48.0 mg/kg/injection, schedule: Q01DX Z (ip), vehicle: methylcellulose (MC)): 114 % of control | T/C (dose: 64.0 mg/kg/injection, schedule: Q04DX003 (ip), vehicle: saline with Tween-80): 215 % of control | T/C (dose: 90.0 mg/kg/injection, schedule: Q01DX Z (ip), vehicle: methylcellulose (MC)): 91 % of control

NC(=O)NNc1ccccc1
T/C [12]: 94 % of control | T/C [13]: 94 % of control | T/C [14]: 90 % of control

CS(=O)(=O)c1ccc(C(O)C(CO)NC(=O)C(Cl)Cl)cc1 (stereo not drawn)
T/C [12]: 96 % of control | T/C [13]: 93 % of control | T/C [14]: 90 % of control

CCCCCCCN1CCC(C(=O)CC)(c2cccc(O)c2)CC1
T/C (dose: 12.5 mg/kg/injection, schedule: Q01DX009 (ip), vehicle: Klucel (hydroxypropylcellulose) (HPC)): 106 % of control | T/C (dose: 25.0 mg/kg/injection, schedule: Q01DX009 (ip), vehicle: Klucel (hydroxypropylcellulose) (HPC)): 98 % of control | T/C (dose: 50.0 mg/kg/injection, schedule: Q01DX009 (ip), vehicle: Klucel (hydroxypropylcellulose) (HPC)): 93 % of control and 87 % of control | T/C [12]: 93 % of control

COc1ccccc1NC(=O)NCCCCCCNC(=O)Nc1ccccc1OC
T/C [6]: 89 % of control | T/C [8]: 92 % of control | T/C [10]: 94 % of control

O=N[O-].O=N[O-].O=N[O-].[Co+3].[NH2-].[NH2-].[NH2-]
T/C [3]: 92 % of control | T/C [1]: 119 % of control | T/C [4]: 90 % of control | T/C [2]: 105 % of control | T/C [5]: 97 % of control | T/C (dose: 400.0 mg/kg/injection, schedule: Q04DX003 (ip), vehicle: saline): 97 % of control

COc1ccc(N=C(N)NC#N)cc1
T/C [6]: 100 % of control | T/C [7]: 93 % of control | T/C [8]: 97 % of control | T/C [9]: 92 % of control | T/C [11]: 97 % of control

CC(=O)Nc1ccc(OC(=O)Nc2ccc(C)cc2[N+](=O)[O-])cc1
T/C [7]: 91 % of control | T/C [9]: 102 % of control | T/C [11]: 106 % of control

O=S(=O)(Nc1cc(Cl)c(NS(=O)(=O)c2ccccc2)c2ccccc12)c1ccccc1
T/C (dose: 75.0 mg/kg/injection, schedule: Q01DX001 (ip), vehicle: Klucel (hydroxypropylcellulose) (HPC)): 92 % of control | T/C (dose: 75.0 mg/kg/injection, schedule: Q01DX009 (ip), vehicle: Klucel (hydroxypropylcellulose) (HPC)): 92 % of control | T/C (dose: 150.0 mg/kg/injection, schedule: Q01DX001 (ip), vehicle: Klucel (hydroxypropylcellulose) (HPC)): 101 % of control | T/C (dose: 150.0 mg/kg/injection, schedule: Q01DX009 (ip), vehicle: Klucel (hydroxypropylcellulose) (HPC)): 94 % of control | T/C (dose: 300.0 mg/kg/injection, schedule: Q01DX001 (ip), vehicle: Klucel (hydroxypropylcellulose) (HPC)): 95 % of control

O=C(/C=C/c1ccccc1)OC(C(=O)O)c1ccccc1 (stereo not drawn)
T/C (dose: 75.0 mg/kg/injection, schedule: Q01DX001 (ip), vehicle: saline): 105 % of control | T/C (dose: 150.0 mg/kg/injection, schedule: Q01DX001 (ip), vehicle: saline): 101 % of control | T/C (dose: 300.0 mg/kg/injection, schedule: Q01DX001 (ip), vehicle: saline): 109 % of control
